The text below walks through data of patent US12134664B2, “Muramyl peptide derivatives” (Bharat Biotech International Limited, priority 2015, dated 2024).

Test [1] deals with splenocytes. Kind of test: Splenocyte proliferation of immunized mice (MTT). It is filed as in vivo. As to conditions: LPS and Con A. On the procedure:
Spleens were isolated from immunized mice and were processed to single cell suspension. 96 well flat bottom Micro titer plates were seeded with 1×10^5 cells/well with RPMI1640 media. Cells were treated with OVA. Con A (2 μg/mL) and LPS (10 μg/mL) or medium with a final volume of 200 μl. Plates were incubated at 37° C. with 5% CO2 in an incubator. After 48 h of incubation 20 μl of Triazolyl blue Tetrazolium Bromide (MTT) solution was added to each well, incubated for next 4 h. Untransformed MTT was removed from each well by aspirating the supernatant (180 μL) and replaced with DMSO. The absorbance was read at 570 nm after 15 min.
Immunostimulating substances act through specific (antigen-dependent) T lymphocytes, B lymphocytes, and dendritic cells and also through non-specific mechanisms of action (antigen-independent) that involves granulocytes, macrophages, and NK cells. Being a secondary lymphoid organ, spleen contains a heterogeneous population of lymphocytes to examine the immunostimulant activity. However, proliferations of immune cells like T and B cells are the benchmark for immune potentiation. Mice were immunized with or without OVA or in combination with MDP and MDP-ET. Type of immune response in all treated groups was measured with LPS and Con-A splenocyte proliferation assays depicted in Figure: 3. […] This is essential for B cell expansion.

Test [2] concerns Total IgG1 and IgG2a antibodies. In words: Total IgG1 and IgG2a in sera of OVA-immunized mice (sandwich ELISA). The class given is in vivo, BALB/c mice. As to conditions: OVA-immunized mice. The protocol:
Male BALB/c mice were immunized subcutaneously with OVA 100 μg alone or with OVA 100 μg dissolved in saline containing the MDP or MDP-ET analogues (7.5, 15 or 30 μg) on Days 1 and 15. Sera were collected 2 weeks after the last immunization. Total IgG1 and IgG2a antibodies in the sera were measured by Sandwich ELISA.
Measurement of total IgG subtypes such as IgG1 and IgG2a are useful to assess type immunity produced. In mice, IgG1 is integrated with Th2-type response, while Th1-type response is integrated with the production of IgG2a, IgG2b, and IgG3 antibodies. Antibody subclass is indispensable for complement fixation and provides protection. IgG2a and IgG2b can fix the complement stronger than IgG1. Vaccine adjuvants showing broad subclass distribution is beneficial against pathogens. […] But, it didn't induce much significant IgG1 response i.e., Th2 type, than MDP+OVA group.
A general note: In an ELISA, binding on a coated surface is turned into a signal by an enzyme label.

Test [3] concerns HBsAg specific IgG antibody. In words: Endpoint titer of HBsAg specific total IgG by ELISA after immunization. It is filed as in vivo, BALB/c mice. As to conditions: for HBsAg specific IgG antibody endpoint titer: i.m. Day 0 & 28, Day 42 sera. The protocol:
Female BALB/c mice (6-8 week old, n=6/group) were vaccinated intramuscularly (i.m, at two quadriceps) on Day 0 & Day 28 with vehicle control or Hepatitis B antigen (20 μg/mouse/dose/100 μl, 50 μl per quadricep) with and without MDP-ET (10 μg or 50 μg/mouse/dose/100 μl) diluted in Phosphate buffered saline. Prior to immunization, Hepatitis B surface antigen was mixed with MDP-ET, by gentle agitation (1:1 ratio), under sterile conditions. Mice were bled and euthanized on Day 42. Blood was collected & serum was isolated to evaluate analyze antigen specific total IgG antibody titer (as in example 3.1.2) and antibody subclasses (isotypes namely IgG1 or IgG2a or IgG3, as in example 3.1.3).
Serial dilutions of individual serum samples ([…] ranging from 1:50 to 819200) were used to determine the endpoint titer of antigen specific total IgG antibody titer by ELISA. Details of assay protocol as described below, For analysis of antigen specific antibody titer, hepatitis B surface antigen was suspended in 50 mM carbonate bicarbonate buffer, pH 9.6 and coated at a concentration (lug/ml, 100 μl/well) in 96 well plates and kept at 4° C. for overnight. Next day, plates were washed with washing buffer (PBST-Phosphate buffered saline, pH 7.4 with 0.05% Tween) and blocked with blocking buffer (PBS with 1% BSA) at RT for 1-2 hr. ELISA plates were washed again with wash buffer (PBS, 0.1% Tween™20) and added serially diluted (in PBS, 0.1% BSA, 0.05% Tween™20, 0.02% sodium azide) sera from hyper immunized mice and incubated at RT for 1 hr. After incubation, wells were again washed and added Goat Anti-mouse IgG HRP conjugate antibody at a dilution of 1:5000 & incubated for 1 hr at RT. Later, wells were washed, and developed with OPD (O-phenylene diamine) as a substrate for 15 min. Reaction was stopped using 2N H2SO4. Absorbance was read at 490 nm. Threshold (Mean+3SD) was established by taking the absorbance of negative control (PBS) group, followed by the reactive index (ratio of absorbance at a particular dilution & threshold), so as to determine end point titer. Based on this calculation, highest dilution at which reactive index value[…] was considered as endpoint antibody titer dilution. Antigen specific antibody endpoint titer in the presence & absence of MDP-ET was represented as in FIG. 5a.

For test [4], the system named is rPvRII specific IgG antibody. Kind of test: Endpoint titer of rPvRII specific IgG by ELISA after immunization. The class given is in vivo, mouse.
The test system of test [5] is IgG isotypes (IgG1, IgG2a & IgG3) raised against HBsAg. In words: TH1:TH2 index from HBsAg specific IgG isotypes. The class given is in vivo, BALB/c mice. As to conditions: HBsAg in the presence of MDP-ET (10 & 50 μg/mouse). An excerpt: It is known that IgG subclasses produced after the immunization against given antigen, primarily determines the function of the antibody or indirectly measures the relative contribution of TH1 versus TH2 type cytokine induction. More specifically, production of IgG1 antibodies induces TH2 type cytokines, whereas production of IgG2a & IgG3 antibodies induces TH1 type cytokines. […] In this context, in the present invention, we determined the levels of IgG isotypes (IgG1, IgG2a & IgG3), raised against HBsAg in the presence or absence of MDP-ET (at 10 μg/mouse & 50 μg/mouse) and calculated TH1:TH2 index then calculated as ([IgG2a+IgG3]/2)/(IgG1). Details of assay protocol as described below as in example 3.1.3. According to such calculation, an index value less than 1 stands for a TH2 polarization; an index value greater than 1 stands for a TH1 polarization.
Analysis of antigen specific IgG antibody subclasses (isotypes namely IgG1 or IgG2a or IgG3) was performed as mentioned in example 3.1.2, except at one step, where goat anti-mouse IgG1 or IgG2a or IgG3 HRP was used at a dilution of 1:5000 (in place of goat anti-mouse IgG) TH1:TH2 index obtained at 10 & 50 μg/mouse of MDP-ET is as shown in FIG. 5c.

In the case of `CCOC(=O)N[C@H]1C(O)O[C@H](CO)[C@@H](O)[C@@H]1O[C@H](C)C(=O)N[C@@H](C)C(=O)N[C@H](CCC(=O)O)C(N)=O` (stereo partly drawn) [MDP-ET, (4R)-5-amino-4-((2S)-2-((2R)-2-(((3R,4R,5S,6R)-3-((ethoxycarbonyl)amino)-2,5-dihydroxy-6-(hydroxymethyl)tetrahydro-2H-pyran-4-yl)oxy)propanamido)propanamido)-5-oxopentanoic acid], the Splenocyte proliferation result in test [1] is listed as “inducing the LPS mediated splenocyte proliferation”. Moreover, the “Th1:Th2 index from antibody titer of ova specific IgG subclasses” value in test [2] worked out at 1. Also, the results for the “increase of HBsAg specific IgG antibody titer versus HBsAg alone” value in test [3] (MDP-ET 10 μg/mouse) and in test [3] (MDP-ET 50 μg/mouse) were 4 fold and 8 fold, respectively. The entries for the “HBsAg specific IgG antibody endpoint titer” value in test [3] (MDP-ET 10 μg/mouse + HBsAg 20 μg) and in test [3] (MDP-ET 50 μg/mouse + HBsAg 20 μg) were 51200 dilution and 204800 dilution, respectively. Also, the “increase of humoral response (TH2), dose dependent” value in test [3] (mice vaccinated with HBsAg in the presence of MDP-ET (10 and 50 μg/mouse)) is listed as 4-8 fold. In addition, the “increase of rPvRII specific IgG antibody titer versus rPvRII alone” value in test [4] (MDP-ET 10 μg/mouse) turned out to be 4 fold. In test [4] (MDP-ET 10 μg/mouse + rPvRII), the “rPvRII specific IgG antibody endpoint titer” value was 51200 dilution. The “TH1:TH2 index ([IgG2a+IgG3]/2)/(IgG1)” value in test [5] worked out at 10.
